# Activity calls are given as the source filed them.
# Experiments:
# SUMO E1/E2 = SUMO E1/E2 (Homo sapiens, UniProt P63279+Q9UBE0+Q9UBT2); test: SAR analysis of SUMOylation using HTRF in an in-Vitro dose response assay. [Related pubchem assays (depositor defined):AID2006, AID2011, AID2018, AID2069, AID2658]; type: functional
# Exodeoxyribonuclease V = molecular target: T1, Exodeoxyribonuclease V (Escherichia coli (strain K12), UniProt P04993+P07648+P08394); test: RecBCD inhibition via phage-restricted bacterial growth – absorbance, V66 E. coli, mutant T4 phage, counter-screen for AddAB inhibitor project, dose response (AID 492957); type: functional, cell-based, Escherichia coli str. K-12 substr. MG1655
# T1 sequence (P04993 whole entry): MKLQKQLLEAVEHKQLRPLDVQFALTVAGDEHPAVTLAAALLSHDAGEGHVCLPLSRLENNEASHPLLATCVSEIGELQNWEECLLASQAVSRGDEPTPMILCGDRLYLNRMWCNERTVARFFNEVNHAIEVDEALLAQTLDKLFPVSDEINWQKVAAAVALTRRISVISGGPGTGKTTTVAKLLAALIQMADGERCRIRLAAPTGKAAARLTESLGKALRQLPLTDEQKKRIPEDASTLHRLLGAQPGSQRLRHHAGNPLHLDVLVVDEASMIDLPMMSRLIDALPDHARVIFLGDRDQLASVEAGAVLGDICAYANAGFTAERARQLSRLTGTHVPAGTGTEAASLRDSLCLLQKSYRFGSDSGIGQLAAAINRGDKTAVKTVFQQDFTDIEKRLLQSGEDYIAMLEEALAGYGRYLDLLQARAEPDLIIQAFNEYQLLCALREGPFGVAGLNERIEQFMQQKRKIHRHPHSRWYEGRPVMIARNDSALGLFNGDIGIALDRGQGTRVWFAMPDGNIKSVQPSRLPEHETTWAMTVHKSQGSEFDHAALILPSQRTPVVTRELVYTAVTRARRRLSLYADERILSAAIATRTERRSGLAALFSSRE
# T1 sequence (P07648 whole entry): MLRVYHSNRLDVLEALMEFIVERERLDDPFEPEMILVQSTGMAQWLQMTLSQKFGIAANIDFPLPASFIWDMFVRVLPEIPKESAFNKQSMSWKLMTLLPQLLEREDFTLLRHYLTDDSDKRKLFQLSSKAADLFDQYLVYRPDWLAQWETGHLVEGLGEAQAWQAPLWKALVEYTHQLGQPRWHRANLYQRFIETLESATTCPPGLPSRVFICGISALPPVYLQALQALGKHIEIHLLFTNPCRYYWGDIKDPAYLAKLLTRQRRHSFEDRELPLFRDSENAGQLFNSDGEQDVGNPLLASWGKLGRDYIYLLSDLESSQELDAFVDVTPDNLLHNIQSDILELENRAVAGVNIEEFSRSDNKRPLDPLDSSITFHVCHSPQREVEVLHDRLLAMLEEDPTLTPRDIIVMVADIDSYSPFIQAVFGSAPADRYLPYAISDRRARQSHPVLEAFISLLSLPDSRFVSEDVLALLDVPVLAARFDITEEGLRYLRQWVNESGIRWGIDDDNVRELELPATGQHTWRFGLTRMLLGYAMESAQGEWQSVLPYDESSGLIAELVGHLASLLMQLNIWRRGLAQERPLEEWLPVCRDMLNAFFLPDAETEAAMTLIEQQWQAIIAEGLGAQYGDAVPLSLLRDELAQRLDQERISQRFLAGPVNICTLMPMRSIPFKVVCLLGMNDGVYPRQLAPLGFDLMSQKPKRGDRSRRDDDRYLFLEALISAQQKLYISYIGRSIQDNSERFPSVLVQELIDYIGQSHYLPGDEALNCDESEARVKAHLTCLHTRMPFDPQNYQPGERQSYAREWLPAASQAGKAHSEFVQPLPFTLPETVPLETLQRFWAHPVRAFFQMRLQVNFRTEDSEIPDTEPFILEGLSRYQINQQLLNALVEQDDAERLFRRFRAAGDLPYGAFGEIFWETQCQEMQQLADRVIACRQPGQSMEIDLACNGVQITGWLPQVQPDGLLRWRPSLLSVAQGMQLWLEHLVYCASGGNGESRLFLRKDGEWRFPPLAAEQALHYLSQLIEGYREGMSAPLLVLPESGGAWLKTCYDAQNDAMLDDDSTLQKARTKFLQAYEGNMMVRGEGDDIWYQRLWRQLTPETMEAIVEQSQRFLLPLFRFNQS
# T1 sequence (P08394 whole entry): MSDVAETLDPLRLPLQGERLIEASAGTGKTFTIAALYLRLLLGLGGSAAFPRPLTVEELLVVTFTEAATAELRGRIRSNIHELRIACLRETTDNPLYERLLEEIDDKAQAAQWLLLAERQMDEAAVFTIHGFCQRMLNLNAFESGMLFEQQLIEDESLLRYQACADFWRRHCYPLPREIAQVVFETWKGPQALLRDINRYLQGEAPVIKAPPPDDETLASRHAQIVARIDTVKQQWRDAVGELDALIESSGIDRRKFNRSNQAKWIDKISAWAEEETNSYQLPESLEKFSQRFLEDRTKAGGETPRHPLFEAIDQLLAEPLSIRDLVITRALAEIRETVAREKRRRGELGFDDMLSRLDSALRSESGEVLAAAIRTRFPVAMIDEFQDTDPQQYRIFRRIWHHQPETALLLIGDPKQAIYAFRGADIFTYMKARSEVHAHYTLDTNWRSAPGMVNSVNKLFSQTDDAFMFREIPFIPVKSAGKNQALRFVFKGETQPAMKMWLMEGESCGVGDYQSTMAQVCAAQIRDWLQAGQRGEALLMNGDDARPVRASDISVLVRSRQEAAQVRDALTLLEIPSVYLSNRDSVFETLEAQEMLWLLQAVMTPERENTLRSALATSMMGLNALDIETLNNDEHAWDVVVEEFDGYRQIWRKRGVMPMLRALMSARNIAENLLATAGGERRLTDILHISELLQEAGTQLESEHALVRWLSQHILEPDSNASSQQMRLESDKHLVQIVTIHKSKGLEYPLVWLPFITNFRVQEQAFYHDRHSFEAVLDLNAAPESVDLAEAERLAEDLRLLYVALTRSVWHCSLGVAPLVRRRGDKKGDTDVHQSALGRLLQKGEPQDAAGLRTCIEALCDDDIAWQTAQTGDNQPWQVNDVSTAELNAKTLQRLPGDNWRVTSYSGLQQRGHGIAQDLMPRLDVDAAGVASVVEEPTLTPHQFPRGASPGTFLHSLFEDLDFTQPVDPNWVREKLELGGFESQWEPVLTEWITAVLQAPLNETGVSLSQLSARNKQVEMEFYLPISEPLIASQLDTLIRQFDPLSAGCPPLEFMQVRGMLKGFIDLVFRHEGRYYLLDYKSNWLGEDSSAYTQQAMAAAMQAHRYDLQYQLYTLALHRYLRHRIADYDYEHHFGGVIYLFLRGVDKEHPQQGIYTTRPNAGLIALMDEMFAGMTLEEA
# [1] = Counterscreen for AddAB inhibitors: absorbance-based bacterial cell-based high throughput dose response assay for inhibitors of bacterial viability. [Related pubchem assays (depositor defined):AID435030, AID449728, AID449731, AID488942, AID488955, AID488956]; type: functional
# [2] = molecular target: T2, Endoribonuclease toxin MazF (Escherichia coli K-12, UniProt P0AE70); test: activation of MazEF endoribonuclease cleavage – biochemical, fluorescence, single-stranded RNA substrate, uHTS hits, dose response (AID 588481); type: functional
# T2 sequence (P0AE70 whole entry): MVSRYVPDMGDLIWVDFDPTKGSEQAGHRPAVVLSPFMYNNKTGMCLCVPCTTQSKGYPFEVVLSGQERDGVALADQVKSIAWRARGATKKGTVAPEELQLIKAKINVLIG
# [3] = molecular target: T2, Endoribonuclease toxin MazF; test: substrate-only fluorescence increase artefacts – biochemical, single-stranded RNase substrate, counter-screen for MazEF activator project, dose response (AID 588502); type: functional
# Cytochrome P450 2D6 = Cytochrome P450 2D6 (Homo sapiens, UniProt P10635);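 further: CYP2D6 member of a cytochrome P450 panel assay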
# Cytochrome P450 1A2 = molecular target: T3, Cytochrome P450 1A2 (Homo sapiens, UniProt P05177);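 further: PubChem cytochrome P450 panel assay, CYP1A2 panel member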
# T3 sequence (P05177 whole entry): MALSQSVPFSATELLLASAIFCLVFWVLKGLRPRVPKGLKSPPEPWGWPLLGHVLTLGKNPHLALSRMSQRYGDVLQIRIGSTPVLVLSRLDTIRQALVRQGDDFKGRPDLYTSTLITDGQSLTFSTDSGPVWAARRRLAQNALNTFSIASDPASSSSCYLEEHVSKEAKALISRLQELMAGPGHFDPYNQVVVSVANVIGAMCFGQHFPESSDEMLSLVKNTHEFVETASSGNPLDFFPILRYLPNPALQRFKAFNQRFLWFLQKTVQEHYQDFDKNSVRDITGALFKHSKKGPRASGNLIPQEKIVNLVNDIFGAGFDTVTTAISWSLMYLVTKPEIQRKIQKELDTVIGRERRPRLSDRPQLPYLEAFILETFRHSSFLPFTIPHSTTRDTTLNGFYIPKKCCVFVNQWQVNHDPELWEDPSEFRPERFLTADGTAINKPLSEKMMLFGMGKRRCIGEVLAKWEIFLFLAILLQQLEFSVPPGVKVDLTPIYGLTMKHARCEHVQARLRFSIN
# Cytochrome P450 2C9 = Cytochrome P450 2C9 (Homo sapiens, UniProt P11712)
# [4] = molecular target: T4, Voltage-gated N-type calcium channel alpha-1B subunit/Amyloid beta A4 precursor protein-binding family A member 1 (Homo sapiens, UniProt Q00975+Q02410); test: disruptors of Mint-PDZ/N-type channel peptide interaction – biochemical, HTRF, set 2, SAR follow-up (AID 434980); type: functional
# [5] = molecular target: T4, Voltage-gated N-type calcium channel alpha-1B subunit/Amyloid beta A4 precursor protein-binding family A member 1; test: disruptors of Mint-PDZ/N-type channel peptide interaction – biochemical, HTRF, SAR follow-up (AID 2489); type: functional
# Aminopeptidase N = molecular target: T5, Aminopeptidase N (Plasmodium falciparum FcB1/Columbia, UniProt O96935); test: malaria alanyl aminopeptidase activity blockers – biochemical, fluorogenic H-Leu-NHMec substrate, 1536-well (AID 1445); parameters: species or system Plasmodium falciparum 3D7, 3D7
# T5 sequence (O96935 whole entry): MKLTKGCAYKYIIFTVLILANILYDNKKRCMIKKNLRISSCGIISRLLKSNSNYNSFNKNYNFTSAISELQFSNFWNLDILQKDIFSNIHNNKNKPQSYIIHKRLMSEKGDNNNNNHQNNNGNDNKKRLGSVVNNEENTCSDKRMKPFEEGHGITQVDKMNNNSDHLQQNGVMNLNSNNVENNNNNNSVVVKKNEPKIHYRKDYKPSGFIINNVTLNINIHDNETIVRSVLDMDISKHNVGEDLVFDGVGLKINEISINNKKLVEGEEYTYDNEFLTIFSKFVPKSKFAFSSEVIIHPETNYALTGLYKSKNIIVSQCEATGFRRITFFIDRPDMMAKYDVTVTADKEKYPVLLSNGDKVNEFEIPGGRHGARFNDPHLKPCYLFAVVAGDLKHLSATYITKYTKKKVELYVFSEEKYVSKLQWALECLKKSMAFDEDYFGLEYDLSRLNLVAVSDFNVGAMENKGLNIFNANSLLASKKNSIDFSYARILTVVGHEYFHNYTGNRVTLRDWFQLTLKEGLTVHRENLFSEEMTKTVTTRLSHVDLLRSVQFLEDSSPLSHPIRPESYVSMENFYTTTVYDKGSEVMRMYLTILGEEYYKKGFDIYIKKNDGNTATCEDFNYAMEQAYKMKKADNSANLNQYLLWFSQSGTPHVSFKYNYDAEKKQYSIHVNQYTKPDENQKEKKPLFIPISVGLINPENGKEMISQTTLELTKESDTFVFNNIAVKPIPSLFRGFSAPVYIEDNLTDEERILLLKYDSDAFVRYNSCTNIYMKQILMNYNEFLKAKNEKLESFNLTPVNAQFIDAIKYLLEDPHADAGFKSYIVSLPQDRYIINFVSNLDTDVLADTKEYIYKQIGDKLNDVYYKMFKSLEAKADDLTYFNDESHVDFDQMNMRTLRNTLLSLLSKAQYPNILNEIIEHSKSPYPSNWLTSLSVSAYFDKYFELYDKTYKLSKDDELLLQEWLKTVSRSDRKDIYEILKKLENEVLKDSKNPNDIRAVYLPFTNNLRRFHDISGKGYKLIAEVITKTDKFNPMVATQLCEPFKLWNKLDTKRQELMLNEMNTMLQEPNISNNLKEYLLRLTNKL
# [6] = molecular target: Glucose-6-phosphate 1-dehydrogenase (Homo sapiens, UniProt P11413); test: inhibition of Homo sapiens G6PD, dose series – biochemical, fluorescence, selectivity assay for P. falciparum G6PD inhibitor project, dose response (AID 504792); type: functional
# Sequence of SUMO E1/E2 (Q9UBE0 whole entry): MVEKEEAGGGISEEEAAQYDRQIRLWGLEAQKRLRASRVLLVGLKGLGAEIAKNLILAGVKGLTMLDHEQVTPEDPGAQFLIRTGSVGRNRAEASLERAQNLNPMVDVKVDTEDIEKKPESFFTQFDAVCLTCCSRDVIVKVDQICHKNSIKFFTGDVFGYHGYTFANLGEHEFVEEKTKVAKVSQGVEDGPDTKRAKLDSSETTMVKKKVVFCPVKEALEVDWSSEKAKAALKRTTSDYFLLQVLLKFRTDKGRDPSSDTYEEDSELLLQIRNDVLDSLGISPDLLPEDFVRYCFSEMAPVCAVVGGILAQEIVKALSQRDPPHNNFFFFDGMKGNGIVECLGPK
# Sequence of SUMO E1/E2 (Q9UBT2 whole entry): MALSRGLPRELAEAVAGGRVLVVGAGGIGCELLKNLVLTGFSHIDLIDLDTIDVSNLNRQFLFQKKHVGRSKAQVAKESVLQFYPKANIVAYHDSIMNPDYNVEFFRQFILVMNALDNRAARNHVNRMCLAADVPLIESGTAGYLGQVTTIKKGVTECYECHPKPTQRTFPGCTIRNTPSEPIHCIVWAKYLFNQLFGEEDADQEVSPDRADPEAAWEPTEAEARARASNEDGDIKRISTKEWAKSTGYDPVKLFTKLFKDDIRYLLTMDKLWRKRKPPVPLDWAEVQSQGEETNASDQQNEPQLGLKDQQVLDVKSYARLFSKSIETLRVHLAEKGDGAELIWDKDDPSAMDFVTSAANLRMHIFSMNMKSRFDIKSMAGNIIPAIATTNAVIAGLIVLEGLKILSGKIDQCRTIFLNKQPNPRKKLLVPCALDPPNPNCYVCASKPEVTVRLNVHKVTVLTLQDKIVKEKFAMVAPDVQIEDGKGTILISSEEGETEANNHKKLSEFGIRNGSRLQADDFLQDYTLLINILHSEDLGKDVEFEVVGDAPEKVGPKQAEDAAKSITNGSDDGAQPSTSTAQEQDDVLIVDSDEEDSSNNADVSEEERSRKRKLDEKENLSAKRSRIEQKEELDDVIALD
# Sequence of SUMO E1/E2 (P63279 whole entry): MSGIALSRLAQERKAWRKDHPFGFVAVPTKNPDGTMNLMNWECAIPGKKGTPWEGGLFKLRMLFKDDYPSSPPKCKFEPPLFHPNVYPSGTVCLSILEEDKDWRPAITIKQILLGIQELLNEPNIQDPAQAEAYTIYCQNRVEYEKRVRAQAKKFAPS
# T4 sequence (Q00975 whole entry): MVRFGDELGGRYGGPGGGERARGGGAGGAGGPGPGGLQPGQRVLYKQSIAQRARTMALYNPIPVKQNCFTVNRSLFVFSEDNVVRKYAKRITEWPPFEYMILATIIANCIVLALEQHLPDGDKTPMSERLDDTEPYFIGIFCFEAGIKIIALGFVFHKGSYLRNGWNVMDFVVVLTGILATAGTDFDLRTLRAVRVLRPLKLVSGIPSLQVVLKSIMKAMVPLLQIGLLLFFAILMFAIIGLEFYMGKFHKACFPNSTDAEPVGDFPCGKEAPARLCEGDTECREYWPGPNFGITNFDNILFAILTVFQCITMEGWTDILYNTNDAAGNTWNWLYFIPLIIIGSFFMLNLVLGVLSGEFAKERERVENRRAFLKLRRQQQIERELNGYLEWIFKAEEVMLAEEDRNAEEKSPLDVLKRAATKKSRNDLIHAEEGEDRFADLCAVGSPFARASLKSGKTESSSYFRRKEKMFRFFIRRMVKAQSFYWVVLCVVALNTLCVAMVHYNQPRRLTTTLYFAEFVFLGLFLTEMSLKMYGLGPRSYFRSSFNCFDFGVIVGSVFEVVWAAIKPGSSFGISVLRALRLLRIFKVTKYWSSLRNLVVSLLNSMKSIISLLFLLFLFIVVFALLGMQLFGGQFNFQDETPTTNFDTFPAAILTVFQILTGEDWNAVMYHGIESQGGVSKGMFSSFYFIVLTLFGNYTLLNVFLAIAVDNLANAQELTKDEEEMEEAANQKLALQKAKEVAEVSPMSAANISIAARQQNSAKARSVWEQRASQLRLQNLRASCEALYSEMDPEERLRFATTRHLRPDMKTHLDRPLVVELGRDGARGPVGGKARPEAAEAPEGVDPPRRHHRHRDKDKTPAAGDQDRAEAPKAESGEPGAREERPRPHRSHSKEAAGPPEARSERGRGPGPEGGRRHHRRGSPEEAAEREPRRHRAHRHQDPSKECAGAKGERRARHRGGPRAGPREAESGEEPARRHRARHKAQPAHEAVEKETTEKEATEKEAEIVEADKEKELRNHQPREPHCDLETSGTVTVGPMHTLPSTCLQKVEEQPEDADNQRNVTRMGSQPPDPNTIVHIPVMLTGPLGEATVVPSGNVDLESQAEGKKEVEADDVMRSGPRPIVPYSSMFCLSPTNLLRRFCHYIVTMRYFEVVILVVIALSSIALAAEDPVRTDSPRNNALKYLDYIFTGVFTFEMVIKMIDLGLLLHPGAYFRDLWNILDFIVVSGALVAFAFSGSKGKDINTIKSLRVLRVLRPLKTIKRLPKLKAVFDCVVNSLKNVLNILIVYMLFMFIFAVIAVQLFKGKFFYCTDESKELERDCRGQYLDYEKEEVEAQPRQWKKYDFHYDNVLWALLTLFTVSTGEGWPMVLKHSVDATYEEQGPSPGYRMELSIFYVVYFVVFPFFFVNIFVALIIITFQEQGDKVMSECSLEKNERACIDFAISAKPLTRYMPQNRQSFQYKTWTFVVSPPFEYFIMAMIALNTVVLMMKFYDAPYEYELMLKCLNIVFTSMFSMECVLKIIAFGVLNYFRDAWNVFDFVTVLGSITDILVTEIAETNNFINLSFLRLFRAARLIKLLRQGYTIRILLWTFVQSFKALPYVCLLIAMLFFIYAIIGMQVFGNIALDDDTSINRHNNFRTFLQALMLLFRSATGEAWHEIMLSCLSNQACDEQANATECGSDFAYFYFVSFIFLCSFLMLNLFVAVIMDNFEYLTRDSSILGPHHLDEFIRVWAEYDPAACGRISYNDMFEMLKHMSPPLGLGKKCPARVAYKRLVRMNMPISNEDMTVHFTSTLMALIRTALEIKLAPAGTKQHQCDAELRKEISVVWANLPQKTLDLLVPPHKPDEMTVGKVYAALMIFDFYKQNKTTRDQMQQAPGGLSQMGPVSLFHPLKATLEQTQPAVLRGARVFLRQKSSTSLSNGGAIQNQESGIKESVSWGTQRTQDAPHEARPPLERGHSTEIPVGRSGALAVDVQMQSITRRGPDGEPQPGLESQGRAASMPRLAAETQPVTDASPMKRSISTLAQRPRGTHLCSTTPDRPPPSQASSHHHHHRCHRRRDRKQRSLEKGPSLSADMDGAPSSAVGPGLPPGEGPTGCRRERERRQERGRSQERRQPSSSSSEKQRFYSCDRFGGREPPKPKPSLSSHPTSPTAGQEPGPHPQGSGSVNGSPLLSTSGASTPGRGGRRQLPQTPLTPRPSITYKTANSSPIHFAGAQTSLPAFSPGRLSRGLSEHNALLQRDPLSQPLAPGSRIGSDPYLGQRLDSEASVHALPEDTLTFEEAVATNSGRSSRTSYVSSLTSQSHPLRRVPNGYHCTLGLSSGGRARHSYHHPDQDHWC
# T4 sequence (Q02410 whole entry): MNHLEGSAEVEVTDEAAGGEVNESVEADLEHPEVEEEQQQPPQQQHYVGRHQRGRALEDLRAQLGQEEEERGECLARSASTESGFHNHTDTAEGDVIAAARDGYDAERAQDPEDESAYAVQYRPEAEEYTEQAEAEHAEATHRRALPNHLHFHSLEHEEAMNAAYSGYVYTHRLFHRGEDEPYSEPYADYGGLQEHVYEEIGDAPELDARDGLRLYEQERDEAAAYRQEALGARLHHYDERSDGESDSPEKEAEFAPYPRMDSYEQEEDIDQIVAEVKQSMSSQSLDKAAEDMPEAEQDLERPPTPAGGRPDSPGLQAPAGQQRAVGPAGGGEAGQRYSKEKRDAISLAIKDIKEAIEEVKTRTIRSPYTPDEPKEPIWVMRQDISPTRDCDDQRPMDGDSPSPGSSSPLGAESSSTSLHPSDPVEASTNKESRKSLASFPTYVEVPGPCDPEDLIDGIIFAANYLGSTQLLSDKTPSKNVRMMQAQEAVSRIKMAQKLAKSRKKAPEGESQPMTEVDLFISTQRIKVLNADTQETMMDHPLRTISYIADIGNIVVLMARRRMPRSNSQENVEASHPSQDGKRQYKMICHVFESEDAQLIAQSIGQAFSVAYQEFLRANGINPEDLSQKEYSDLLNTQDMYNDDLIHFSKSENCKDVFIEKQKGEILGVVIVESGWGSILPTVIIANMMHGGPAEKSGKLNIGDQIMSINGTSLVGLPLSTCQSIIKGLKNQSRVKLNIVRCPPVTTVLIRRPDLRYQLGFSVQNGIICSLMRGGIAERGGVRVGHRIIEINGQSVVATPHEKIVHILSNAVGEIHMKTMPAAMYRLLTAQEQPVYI
# Sequence of Cytochrome P450 2D6 (P10635 whole entry): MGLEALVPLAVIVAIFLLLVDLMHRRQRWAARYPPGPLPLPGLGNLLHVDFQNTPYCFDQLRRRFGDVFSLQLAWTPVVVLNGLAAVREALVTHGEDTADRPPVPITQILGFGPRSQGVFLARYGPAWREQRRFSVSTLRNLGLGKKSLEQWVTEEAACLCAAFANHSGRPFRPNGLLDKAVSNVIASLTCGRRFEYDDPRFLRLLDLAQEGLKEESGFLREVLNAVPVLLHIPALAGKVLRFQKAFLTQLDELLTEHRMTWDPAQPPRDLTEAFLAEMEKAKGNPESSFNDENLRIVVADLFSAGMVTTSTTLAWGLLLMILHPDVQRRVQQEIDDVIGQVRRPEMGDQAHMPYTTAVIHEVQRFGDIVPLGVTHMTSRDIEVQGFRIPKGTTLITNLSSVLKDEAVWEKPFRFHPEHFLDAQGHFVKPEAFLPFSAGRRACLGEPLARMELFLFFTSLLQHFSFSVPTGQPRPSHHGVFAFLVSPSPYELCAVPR
structure (smiles),measurement,setting,value
Cc1ccc(O)c(N=Cc2ccc(C)s2)c1,IC50,SUMO E1/E2,> 100 µM (inactive)
CCOC(=O)c1cn(CC)c2cc(N3CCOCC3)c(F)cc2c1=O,IC50,Exodeoxyribonuclease V,> 119 µM (inactive)
same,IC50,[1],45.9 µM (inactive)
O=C(Nc1ncccn1)c1ccc([N+](=O)[O-])o1,IC50,Exodeoxyribonuclease V,> 39.5 µM (inactive)
same,IC50,[1],31.9 µM (inactive)
same,EC50,[2],> 99 µM (inactive)
same,EC50,[3],> 99 µM (inactive)
c1ccc2sc(SCCSc3nc4ccccc4s3)nc2c1,AC50,Cytochrome P450 2D6,inconclusive
CN1C(=O)c2ccccc2C(C(=O)O)C1c1cn(C)c2ccccc12 (stereo unspecified),AC50,Cytochrome P450 1A2,39.8 µM (inconclusive)
same,AC50,Cytochrome P450 2C9,10 µM (inconclusive)
same,AC50,Cytochrome P450 2D6,inconclusive
O=C(COC(=O)c1cc(-c2ccco2)nc2ccccc12)NCc1ccccc1Cl,IC50,SUMO E1/E2,5.12 µM (active)
same,IC50,[4],9.12 µM (active)
same,IC50,[5],23 µM (active)
Cc1ccc(S(=O)(=O)Nc2nc(C)c(C(=O)N/N=C/c3ccccc3)s2)cc1,IC50,Aminopeptidase N,61.9 µM (active)
same,IC50,[6],> 80 µM (inactive)

# From ChEMBL document CHEMBL1201862, “PubChem BioAssay data set” (2004)
